Laboratory results from patent US20250101041A1, “POSITIVE ALLOSTERIC MODULATORS OF THE MUSCARINIC ACETYLCHOLINE RECEPTOR M4” (Vanderbilt University, priority 2022, published 2025).

Target: T1, human mAChR M4 (Homo sapiens, UniProt P08173)
T1 construct: expressed in transfected cells; host or cells: CHO-K1 (American Type Culture Collection), stably expressing hM4 and Gqi5
T1 sequence (P08173 1-479): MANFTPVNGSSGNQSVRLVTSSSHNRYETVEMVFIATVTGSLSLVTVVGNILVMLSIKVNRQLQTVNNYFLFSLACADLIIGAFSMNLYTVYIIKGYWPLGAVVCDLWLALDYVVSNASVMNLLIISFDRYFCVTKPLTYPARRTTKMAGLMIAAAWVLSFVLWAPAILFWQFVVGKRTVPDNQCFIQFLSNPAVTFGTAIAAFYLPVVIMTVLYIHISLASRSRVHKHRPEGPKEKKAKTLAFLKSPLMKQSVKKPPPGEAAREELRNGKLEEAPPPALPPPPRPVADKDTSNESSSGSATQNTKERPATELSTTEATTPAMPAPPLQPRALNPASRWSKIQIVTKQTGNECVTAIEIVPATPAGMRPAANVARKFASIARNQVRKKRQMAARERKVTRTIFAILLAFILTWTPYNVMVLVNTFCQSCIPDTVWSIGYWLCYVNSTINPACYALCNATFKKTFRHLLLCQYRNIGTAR
Assay: mAChR M4 cell-based functional assay: calcium mobilization (Fluo-4, FDSS), potentiation of EC20 acetylcholine response in hM4-Gqi5 CHO-K1 cells
Settings: human M4; for Emax at 30 µM: CHO-K1, % ACh maximum at 30 μM; for EC50: potentiation of EC20 acetylcholine response, calcium mobilization
Outline: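 Readout is the fluorescence-ratio rise at 1 Hz on FDSS, with PAM activity taken as concentration-dependent enhancement of the EC20 acetylcholine response, fitted four-parameter for EC50/Emax. hM4-Gqi5 CHO-K1 cells carried Fluo-4 AM dye; test compounds (11 points, 1:3) preceded EC20 acetylcholine additions at 144 s and 230 s.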

Compound	Emax at 30 µM [%]	EC50 [µM]
COc1cnccc1Nc1cnc2c(c1)CN(c1nn3c(=O)ccnc3cc1C)CC2 [Compound 2-112, 7-(3-((3-methoxypyridin-4-yl)amino)-7,8-dihydro-1,6-naphthyridin-6(5H)-yl)-8-methyl-4H-pyrimido[1,2-b]pyridazin-4-one]	64	2.71
Cc1cc2nccc(=O)n2nc1N1CCc2ncc(Nc3ccncc3Cl)cc2C1 [Compound 2-113, 7-(3-((3-chloropyridin-4-yl)amino)-7,8-dihydro-1,6-naphthyridin-6(5H)-yl)-8-methyl-4H-pyrimido[1,2-b]pyridazin-4-one]	97	0.048
Cc1cc2nccc(=O)n2nc1N1CCc2ncc(Nc3c(F)ccnc3C)cc2C1 [Compound 2-114, 7-(3-((4-fluoro-2-methylpyridin-3-yl)amino)-7,8-dihydro-1,6-naphthyridin-6(5H)-yl)-8-methyl-4H-pyrimido[1,2-b]pyridazin-4-one]	82	0.165
Cc1ccc(Nc2cnc3c(c2)CN(c2nn4c(=O)ccnc4cc2C)CC3)c(F)n1 [Compound 2-115, 7-(3-((2-fluoro-6-methylpyridin-3-yl)amino)-7,8-dihydro-1,6-naphthyridin-6(5H)-yl)-8-methyl-4H-pyrimido[1,2-b]pyridazin-4-one]	93	0.329
Cc1cc2nccc(=O)n2nc1N1CCc2ncc(Nc3cc(Cl)cnc3F)cc2C1 [Compound 2-116, 7-(3-((5-chloro-2-fluoropyridin-3-yl)amino)-7,8-dihydro-1,6-naphthyridin-6(5H)-yl)-8-methyl-4H-pyrimido[1,2-b]pyridazin-4-one]	92	0.052
Cc1cc2nccc(=O)n2nc1N1CCc2ncc(NS(C)(=O)=O)cc2C1 [Compound 2-117, N-(6-(8-methyl-4-oxo-4H-pyrimido[1,2-b]pyridazin-7-yl)-5,6,7,8-tetrahydro-1,6-naphthyridin-3-yl)methanesulfonamide]	83	2.76
Cc1cc2nccc(=O)n2nc1N1CCc2ncc(NS(=O)(=O)C3CC3)cc2C1 [Compound 2-118, N-(6-(8-methyl-4-oxo-4H-pyrimido[1,2-b]pyridazin-7-yl)-5,6,7,8-tetrahydro-1,6-naphthyridin-3-yl)cyclopropanesulfonamide]	48	3.05
Cc1nc(S(=O)(=O)Nc2cnc3c(c2)CN(c2nn4c(=O)ccnc4cc2C)CC3)cs1 [Compound 2-119, 2-methyl-N-(6-(8-methyl-4-oxo-4H-pyrimido[1,2-b]pyridazin-7-yl)-5,6,7,8-tetrahydro-1,6-naphthyridin-3-yl)thiazole-4-sulfonamide]	31	
Cc1cc2nccc(=O)n2nc1N1CCc2ncc(NC(=O)C3CC(F)(F)C3)cc2C1 [Compound 2-120, 3,3-difluoro-N-(6-(8-methyl-4-oxo-4H-pyrimido[1,2-b]pyridazin-7-yl)-5,6,7,8-tetrahydro-1,6-naphthyridin-3-yl)cyclobutane-1-carboxamide]	71	
Cc1cc2nccc(=O)n2nc1N1CCc2ncc(NC(=O)C3(C)CCC3)cc2C1 [Compound 2-121, 1-methyl-N-(6-(8-methyl-4-oxo-4H-pyrimido[1,2-b]pyridazin-7-yl)-5,6,7,8-tetrahydro-1,6-naphthyridin-3-yl)cyclobutane-1-carboxamide]	66	
Cc1cc2nccc(=O)n2nc1N1CCc2ncc(NC(=O)c3ncco3)cc2C1 [Compound 2-122, N-(6-(8-methyl-4-oxo-4H-pyrimido[1,2-b]pyridazin-7-yl)-5,6,7,8-tetrahydro-1,6-naphthyridin-3-yl)oxazole-2-carboxamide]	44	1.88
Cc1cc2nccc(=O)n2nc1N1CCc2ncc(Nc3ccnc(F)c3)cc2C1 [Compound 2-123, 7-(3-((2-fluoropyridin-4-yl)amino)-7,8-dihydro-1,6-naphthyridin-6(5H)-yl)-8-methyl-4H-pyrimido[1,2-b]pyridazin-4-one]	92	0.016
Cc1ccncc1Nc1cnc2c(c1)CN(c1nn3c(=O)ccnc3cc1C)CC2 [Compound 2-124, 8-methyl-7-(3-((4-methylpyridin-3-yl)amino)-7,8-dihydro-1,6-naphthyridin-6(5H)-yl)-4H-pyrimido[1,2-b]pyridazin-4-one]	87	0.163
Cc1cc2nccc(=O)n2nc1N1CCc2ncc(Nc3ccc(C4CC4)nc3)cc2C1 [Compound 2-125, 7-(3-((6-cyclopropylpyridin-3-yl)amino)-7,8-dihydro-1,6-naphthyridin-6(5H)-yl)-8-methyl-4H-pyrimido[1,2-b]pyridazin-4-one]	58	
Cc1cc2nccc(=O)n2nc1N1CCc2ncc(Nc3ccc(Cl)nc3)cc2C1 [Compound 2-126, 7-(3-((6-chloropyridin-3-yl)amino)-7,8-dihydro-1,6-naphthyridin-6(5H)-yl)-8-methyl-4H-pyrimido[1,2-b]pyridazin-4-one]	79	0.263
Cc1cc2nccc(=O)n2nc1N1CCc2ncc(Nc3cnccn3)cc2C1 [Compound 2-127, 8-methyl-7-(3-(pyrazin-2-ylamino)-7,8-dihydro-1,6-naphthyridin-6(5H)-yl)-4H-pyrimido[1,2-b]pyridazin-4-one]	64	2.54
Cc1cc2nccc(=O)n2nc1N1CCc2ncc(Nc3cncc(F)c3)cc2C1 [Compound 2-128, 7-(3-((5-fluoropyridin-3-yl)amino)-7,8-dihydro-1,6-naphthyridin-6(5H)-yl)-8-methyl-4H-pyrimido[1,2-b]pyridazin-4-one]	82	0.09
Cc1ncc(CNc2cnc3c(c2)CN(c2nn4c(=O)ccnc4cc2C)CC3)o1 [Compound 2-129, 8-methyl-7-(3-(((2-methyloxazol-5-yl)methyl)amino)-7,8-dihydro-1,6-naphthyridin-6(5H)-yl)-4H-pyrimido[1,2-b]pyridazin-4-one]	105	0.686
Cc1cc2nccc(=O)n2nc1N1CCc2ncc(NCc3cscn3)cc2C1 [Compound 2-130, 8-methyl-7-(3-((thiazol-4-ylmethyl)amino)-7,8-dihydro-1,6-naphthyridin-6(5H)-yl)-4H-pyrimido[1,2-b]pyridazin-4-one]	87	0.508
Cc1cc2nccc(=O)n2nc1N1CCc2ncc(NCc3cncn3C)cc2C1 [Compound 2-131, 8-methyl-7-(3-(((1-methyl-1H-imidazol-5-yl)methyl)amino)-7,8-dihydro-1,6-naphthyridin-6(5H)-yl)-4H-pyrimido[1,2-b]pyridazin-4-one]	73	2.79
Cc1cc(Nc2cnc3c(c2)CN(c2nn4c(=O)ccnc4cc2C)CC3)cnc1Cl [Compound 2-132, 7-(3-((6-chloro-5-methylpyridin-3-yl)amino)-7,8-dihydro-1,6-naphthyridin-6(5H)-yl)-8-methyl-4H-pyrimido[1,2-b]pyridazin-4-one]	93	0.587
Cc1cncc(Nc2cnc3c(c2)CN(c2nn4c(=O)ccnc4cc2C)CC3)c1 [Compound 2-133, 8-methyl-7-(3-((5-methylpyridin-3-yl)amino)-7,8-dihydro-1,6-naphthyridin-6(5H)-yl)-4H-pyrimido[1,2-b]pyridazin-4-one]	96	0.184
COc1ccc(Nc2cnc3c(c2)CN(c2nn4c(=O)ccnc4cc2C)CC3)cn1 [Compound 2-134, 7-(3-((6-methoxypyridin-3-yl)amino)-7,8-dihydro-1,6-naphthyridin-6(5H)-yl)-8-methyl-4H-pyrimido[1,2-b]pyridazin-4-one]	90	0.29
Cc1cc2nccc(=O)n2nc1N1CCc2ncc(Nc3cnccc3Cl)cc2C1 [Compound 2-135, 7-(3-((4-chloropyridin-3-yl)amino)-7,8-dihydro-1,6-naphthyridin-6(5H)-yl)-8-methyl-4H-pyrimido[1,2-b]pyridazin-4-one]	96	0.112
Cc1cc2nccc(=O)n2nc1N1CCc2ncc(Nc3ccnnc3)cc2C1 [Compound 2-136, 8-methyl-7-(3-(pyridazin-4-ylamino)-7,8-dihydro-1,6-naphthyridin-6(5H)-yl)-4H-pyrimido[1,2-b]pyridazin-4-one]	101	0.308
COc1cncc(Nc2cnc3c(c2)CN(c2nn4c(=O)ccnc4cc2C)CC3)c1 [Compound 2-137, 7-(3-((5-methoxypyridin-3-yl)amino)-7,8-dihydro-1,6-naphthyridin-6(5H)-yl)-8-methyl-4H-pyrimido[1,2-b]pyridazin-4-one]	98	0.324
Cc1cc2nccc(=O)n2nc1N1CCc2ncc(Nc3cncc(C(F)(F)F)c3)cc2C1 [Compound 2-138, 8-methyl-7-(3-((5-(trifluoromethyl)pyridin-3-yl)amino)-7,8-dihydro-1,6-naphthyridin-6(5H)-yl)-4H-pyrimido[1,2-b]pyridazin-4-one]	87	0.747
